Key:
[1] = test system: intracellular S. aureus; assay: Viability of intracellular S. aureus in infected osteoblasts treated with nanoparticles; type: cell-based, Staphylococcus aureus; conditions: nafcillin alone, no nanoparticles
Protocol: The viability of intracellular S. aureus following treatment with nanoparticles was determined. S. aureus was allowed to infect cultured primary mouse osteoblasts as described herein, followed by removal and killing of all remaining extracellular bacteria in culture. […] None of the nanoparticle preparations had any effect on osteoblast viability. All loaded formulations of particles caused a significant decrease in the viability of intracellular S. aureus inside infected osteoblasts at both 24 and 48 hours.
FIG. 11 is a bar graph showing viability of intracellular S. aureus in osteoblasts treated with nanoparticles or nanoparticles loaded with nafcillin. Primary mouse osteoblasts were infected intracellularly with S. aureus and were subsequently treated with unloaded nanoparticles (G1 and G2) or nanoparticles loaded with nafcillin (G1.1, 1.2, 2.1 and 2.2) for 1 (0 hour), 24 and 48 hours. Osteoblasts were subsequently lysed following these time intervals with a solution containing 0.1% triton X-100, and serial dilutions of the lysates were plated on tryptic soy agar (TSA). Following an overnight incubation at 37° C., numbers of viable bacteria were enumerated, *, P<0.05 versus S. aureus-treated osteoblasts at the same time point. […]
Following resuspension in OBGM, bacterial cell density is determined via spectrophotometric analysis. […]

[2] = In vitro drug release by dialysis method under sink conditions; type: physicochemical; conditions: nafcillin-PBS solution without polymer nanoparticles in dialysis bag, 37° C.
Excerpt: A dialysis method was used in the measurement of in vitro drug release. Drug release studies were done under sink conditions; the volume of the buffer was kept large (outer sink) compared to the volume of drug-loaded nanoparticles suspension in the dialysis bag. The (theoretical) situation of infinite dilution is known as a perfect sink; however, even though perfect sink conditions are never attainable in practice, they are the only situation in which a true release profile can be measured. For a given matrix volume, an increase in liquid volume or volume ratio will promote drug release due to the lower drug concentrations in the medium. The system developed was continuously agitated, resulting in the faster diffusion of drug through the dialysis membrane to the outer sink. FIG. 9A is a plot of cumulative drug release (%) versus time in hours, for release of nafcillin from nafcillin-PBS solution loaded in a dialysis bag with a molecular weight cut-off of 6 kDa at 37° C. FIG. 9B is a plot of cumulative drug release (%) versus time in hours for release of nafcillin from nafcillin-PBS solution loaded in a dialysis bag with a molecular weight cut-off of 12-14 kDa at 37° C. The release of nafcillin from nafcillin-PBS solution without polymer nanoparticles was rapid, since 97% of the drug was released within the first nine (9) hours. […]

- cumulative drug release within the first nine (9) hours [2]: 97%
SMILES: CCOc1ccc2ccccc2c1C(=O)N[C@@H]1C(=O)N2[C@@H]1SC(C)(C)[C@@H]2C(=O)O [nafcillin, Nafcillin]
- viability of intracellular S. aureus, compared with untreated infected osteoblasts [1]: indistinguishable from untreated S. aureus-infected osteoblasts

Source: patent US20140274881A1, “BIODEGRADABLE THERAPEUTIC NANOPARTICLES CONTAINING AN ANTIMICROBIAL AGENT” (CAROLINAS HEALTHCARE SYSTEM, priority 2008, published 2014)
